Data taken from patent EP3305781A1, “CHEMICAL SUBSTANCES WHICH INHIBIT THE ENZYMATIC ACTIVITY OF HUMAN KALLIKREIN-RELATED PEPTIDASE 6 (KLK6)” (Deutsches Krebsforschungszentrum, priority 2016, dated 2018).

Assays:
[1] = NMR-based stability assay in cell culture medium; type: physicochemical; conditions: ~8 mM in DMSO-d6 diluted 1:3 with DMEM + 10% FCS; NMR at 37°C for 16 hours; compared with Example Compound 1; Figures 1-3
Factor Xa = Factor Xa (Homo sapiens, UniProt P00742); assay: Biochemical inhibition assay, fluorogenic substrate FSR-AMC; conditions: read-out: Factor Xa IC50; Factor Xa 4 nM; 30 min incubation with inhibitor; FSR-AMC 20 µM; Tris pH 7.5
Protocol: (§1) In a 384 well plate, 5 µL of eleven concentrations of inhibitor in 8% DMSO (serial dilution 2:1) and a blank were incubated with an equal amount of enzyme (KLK6, Thrombin, Trypsin or Factor Xa) diluted in 50 mM Tris pH 7.5, 150 mM NaCl, 1 mM EDTA, 0.05% Tween20 assay buffer for 30 minutes. […] Inhibition of the enzyme as a function of the inhibitor concentration was used to generate dose response curves, which allowed estimating IC50 values, according to the following equation in GraphPad Prism: y = ymin + (ymax−ymin)/(1+10^(((LogIC50−x)*HillSlope))) [formula]
(§2) Assay final concentrations: • KLK6: 5 nM • Trypsin: 0.88 ng/mL • Thrombin: 9.8·10^-5 NIH unit/mL • Factor Xa: 4 nM • FSR-AMC: 20 µM

Trypsin = Trypsin (Homo sapiens, UniProt P07477); assay: as above; conditions: read-out: Trypsin IC50; Trypsin 0.88 ng/mL; 30 min incubation with inhibitor; FSR-AMC 20 µM; Tris pH 7.5
Protocol: as §1, §2

Thrombin = Thrombin (Homo sapiens, UniProt P00734); assay: as above; conditions: read-out: Thrombin IC50; Thrombin 9.8·10^-5 NIH unit/mL; 30 min incubation with inhibitor; FSR-AMC 20 µM; Tris pH 7.5
Protocol: as §1, §2

KLK6 = KLK6 (Homo sapiens, UniProt Q92876); assay: as above; conditions: read-out: KLK6 IC50; KLK6 5 nM (produced in insect cells); 30 min incubation with inhibitor; FSR-AMC 20 µM; Tris pH 7.5
Protocol: as §1, §2

Chain of Factor Xa (P00742 235-488 limits assumed): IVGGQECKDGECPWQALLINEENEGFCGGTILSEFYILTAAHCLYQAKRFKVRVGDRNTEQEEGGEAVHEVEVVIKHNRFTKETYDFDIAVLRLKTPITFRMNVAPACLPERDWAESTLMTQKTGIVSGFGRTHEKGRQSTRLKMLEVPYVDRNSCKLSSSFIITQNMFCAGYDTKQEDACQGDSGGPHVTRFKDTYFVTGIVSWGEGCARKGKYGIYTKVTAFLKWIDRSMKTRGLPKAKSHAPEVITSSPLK
Chain of Factor Xa (P00742 41-179 partner limits assumed): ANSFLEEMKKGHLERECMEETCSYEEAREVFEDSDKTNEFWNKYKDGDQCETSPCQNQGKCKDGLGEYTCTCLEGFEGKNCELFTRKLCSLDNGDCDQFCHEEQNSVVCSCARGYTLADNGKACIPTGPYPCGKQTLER

Compound	stability in cell culture medium (ester hydrolysis) [1]	IC50 (Factor Xa) [µM]	IC50 (Trypsin) [µM]	IC50 (Thrombin) [µM]	IC50 (KLK6) [µM]
Cc1nn(-c2ccccc2)c(C)c1NC(=O)COC(=O)Cc1c(C)[nH]c2ccccc12 [Example Compound 38, 2-((3,5-dimethyl-1-phenyl-1H-pyrazol-4-yl)amino)-2-oxoethyl 2-(2-methyl-1H-indol-3-yl)acetate]	totally enhanced	–	–	–	–
Cc1nn(-c2ccccc2)c(C)c1NC(=O)COC(=O)C(C)c1c(C)[nH]c2ccccc12 (stereo not shown) [Example Compound 81, 2-((3,5-dimethyl-1-phenyl-1H-pyrazol-4-yl)amino)-2-oxoethyl 2-(2-methyl-1H-indol-3-yl)propanoate]	further stabilizing properties	–	–	–	–
Cc1[nH]c2ccccc2c1CC(=O)OCC(=O)NC(C)(C)C [compound 67]	–	> 200	> 200	> 200	166
Cc1nn(-c2ccccc2)c(C)c1NC(=O)COC(=O)Cc1ccco1 [compound 68]	–	> 200	> 200	> 200	46
Cc1nn(-c2ccccc2)c(C)c1NC(=O)COC(=O)Cc1ccccc1OCc1ccccc1 [compound 69]	–	> 200	> 200	> 200	57.4
Cc1[nH]c2ccccc2c1CC(=O)OCC(=O)NC1CCCC1 [compound 71]	–	> 200	> 200	> 200	78.7
Cc1ccc(NC(=O)COC(=O)Cc2c(C)[nH]c3ccccc23)cc1 [compound 74]	–	> 200	> 200	> 200	4.57
Cc1cccc(NC(=O)COC(=O)Cc2c(C)[nH]c3ccccc23)c1 [compound 75]	–	> 200	> 200	> 200	5.38
Cc1ccccc1NC(=O)COC(=O)Cc1c(C)[nH]c2ccccc12 [compound 78]	–	> 200	> 200	> 200	4.73
COc1cccc(NC(=O)COC(=O)Cc2c(C)[nH]c3ccccc23)c1 [compound 79]	–	> 200	> 200	> 200	6.05
COc1ccc(NC(=O)COC(=O)Cc2c(C)[nH]c3ccccc23)cc1 [compound 80]	–	> 200	> 200	> 200	6.55
Cc1nn(-c2ccccc2)c(C)c1NC(=O)COC(=O)Cc1ccccc1N=[N+]=[N-] [compound 82]	–	> 200	> 200	> 200	27.3
Cc1nn(-c2ccccc2)c(C)c1NC(=O)COC(=O)C(C)c1c[nH]c2ccccc12 (stereo not shown) [compound 83]	–	> 200	> 200	> 200	14.3

Second part, the molecule after the results:

stability in cell culture medium (ester hydrolysis) [1]	IC50 (Factor Xa) [µM]	IC50 (Trypsin) [µM]	IC50 (Thrombin) [µM]	IC50 (KLK6) [µM]	Compound
–	> 200	> 200	> 200	32.6	Cc1nn(-c2ccccc2)c(C)c1NC(=O)COC(=O)Cc1ccc(Cl)s1 [compound 60]
–	> 200	> 200	> 200	2.33	Cc1nn(-c2ccccc2)c(C)c1NC(=O)COC(=O)Cc1cc(Cl)sc1Cl [compound 61]
–	> 200	> 200	> 200	2.35	Cc1nn(-c2ccccc2)c(C)c1NC(=O)COC(=O)Cc1ccccc1C(F)(F)F [compound 63]
–	> 200	> 200	> 200	22	Cc1nn(-c2ccccc2)c(C)c1NC(=O)COC(=O)Cc1cccc(F)c1 [compound 64]
–	> 200	> 200	> 200	38.7	C=CCOc1ccccc1NC(=O)COC(=O)Cc1ccccc1I [compound 65]
–	> 200	> 200	> 200	7.4	Cc1nn(-c2ccccc2)c(C)c1NC(=O)COC(=O)Cc1ccsc1Cl [compound 66]
–	65.9	50.4	60.3	12.3	Cc1[nH]c2ccccc2c1CC(=O)OCC(=O)Nc1ccc(F)cn1 [compound 72]
–	34.7	114	> 200	1.46	Cc1[nH]c2ccccc2c1CC(=O)OCC(=O)Nc1ccccc1Cl [compound 73]
–	21.1	28.7	> 200	1.86	COc1ccccc1NC(=O)COC(=O)Cc1c(C)[nH]c2ccccc12 [compound 77]
–	67.5	82.1	90.6	3.27	Cc1[nH]c2ccccc2c1CC(=O)OCC(=O)Nc1cccc(C(N)=O)c1 [compound 84]
–	157	> 200	> 200	172	Cc1[nH]c2ccccc2c1CC(=O)OCC(=O)NCc1ncc[nH]1 [compound 85]
–	18.1	9.1	14.1	2.88	Cc1nn(-c2ccccc2)c(C)c1N(C)C(=O)COC(=O)Cc1c(C)[nH]c2ccccc12 [compound 88]
